Reference: paper PMC12583703 (Nature Communications, 2025)

Experiments:
SLC38A2 = target: T1, SLC38A2 (Homo sapiens, UniProt Q96QD8); assay: thermal shift assay
T1 sequence (Q96QD8 1-506): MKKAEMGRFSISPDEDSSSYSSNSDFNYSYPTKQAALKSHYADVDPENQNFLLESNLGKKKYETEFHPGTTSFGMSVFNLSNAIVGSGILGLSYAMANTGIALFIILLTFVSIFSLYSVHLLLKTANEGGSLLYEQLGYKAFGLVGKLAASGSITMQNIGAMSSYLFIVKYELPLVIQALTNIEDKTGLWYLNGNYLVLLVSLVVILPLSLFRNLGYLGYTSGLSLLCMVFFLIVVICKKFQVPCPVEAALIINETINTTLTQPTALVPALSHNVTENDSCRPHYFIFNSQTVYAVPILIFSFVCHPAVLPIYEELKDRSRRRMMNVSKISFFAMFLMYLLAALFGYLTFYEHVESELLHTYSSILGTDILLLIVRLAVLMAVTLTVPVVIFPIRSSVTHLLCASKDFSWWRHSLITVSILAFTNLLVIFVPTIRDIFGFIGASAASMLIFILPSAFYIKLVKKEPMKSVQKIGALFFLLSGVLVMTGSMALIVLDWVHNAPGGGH

SLC1A5 = target: T2, SLC1A5 (Homo sapiens, UniProt Q15758); assay: thermal shift assay
T2 sequence (Q15758 1-541): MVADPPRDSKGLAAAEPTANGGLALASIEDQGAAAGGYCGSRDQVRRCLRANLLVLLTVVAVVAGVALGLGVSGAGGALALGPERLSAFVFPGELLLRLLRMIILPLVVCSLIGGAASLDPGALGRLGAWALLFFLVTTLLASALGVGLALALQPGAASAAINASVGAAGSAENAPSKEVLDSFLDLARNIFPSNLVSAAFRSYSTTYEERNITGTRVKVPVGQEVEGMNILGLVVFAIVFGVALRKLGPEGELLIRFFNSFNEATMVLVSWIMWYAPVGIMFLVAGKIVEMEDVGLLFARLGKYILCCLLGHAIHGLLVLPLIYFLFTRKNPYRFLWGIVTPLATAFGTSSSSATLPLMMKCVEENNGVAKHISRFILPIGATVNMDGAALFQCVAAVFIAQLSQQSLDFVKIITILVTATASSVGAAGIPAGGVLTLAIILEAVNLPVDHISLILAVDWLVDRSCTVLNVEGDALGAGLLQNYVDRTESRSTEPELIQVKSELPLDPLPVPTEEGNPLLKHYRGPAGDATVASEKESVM

## Cc1cccc(COc2ccccc2CN(CC[C@H](N)C(=O)O)Cc2ccccc2OCc2cccc(C)c2)c1 [V-9302]
SLC38A2
  Tm: V-9302 significantly altered the Tm values of SLC1A5, SLC38A2, SLC6A19, and ANO1
SLC1A5
  Tm: V-9302 significantly altered the Tm values of SLC1A5, SLC38A2, SLC6A19, and ANO1
